Reference: patent US9878986B2, “Compounds for selective histone deacetylase inhibitors, and pharmaceutical composition comprising the same” (CHONG KUN DANG PHARMACEUTICAL CORP., priority 2013, dated 2018)

Legend:
[1] = target: T1, HDAC 6 (Homo sapiens, UniProt Q9UBN7); test: Test of HDAC activities, HDAC6 (fluorimetric); format: biochemical; parameters: purchased Calbiochem 382180; settings: samples at 0.1, 1, 10, 100, 1000 nM; 37° C. 60 minutes; fluorescence Ex 390, Em 460; read-out: HDAC inhibitory activities, HDAC6
T1 sequence (Q9UBN7 1-1215): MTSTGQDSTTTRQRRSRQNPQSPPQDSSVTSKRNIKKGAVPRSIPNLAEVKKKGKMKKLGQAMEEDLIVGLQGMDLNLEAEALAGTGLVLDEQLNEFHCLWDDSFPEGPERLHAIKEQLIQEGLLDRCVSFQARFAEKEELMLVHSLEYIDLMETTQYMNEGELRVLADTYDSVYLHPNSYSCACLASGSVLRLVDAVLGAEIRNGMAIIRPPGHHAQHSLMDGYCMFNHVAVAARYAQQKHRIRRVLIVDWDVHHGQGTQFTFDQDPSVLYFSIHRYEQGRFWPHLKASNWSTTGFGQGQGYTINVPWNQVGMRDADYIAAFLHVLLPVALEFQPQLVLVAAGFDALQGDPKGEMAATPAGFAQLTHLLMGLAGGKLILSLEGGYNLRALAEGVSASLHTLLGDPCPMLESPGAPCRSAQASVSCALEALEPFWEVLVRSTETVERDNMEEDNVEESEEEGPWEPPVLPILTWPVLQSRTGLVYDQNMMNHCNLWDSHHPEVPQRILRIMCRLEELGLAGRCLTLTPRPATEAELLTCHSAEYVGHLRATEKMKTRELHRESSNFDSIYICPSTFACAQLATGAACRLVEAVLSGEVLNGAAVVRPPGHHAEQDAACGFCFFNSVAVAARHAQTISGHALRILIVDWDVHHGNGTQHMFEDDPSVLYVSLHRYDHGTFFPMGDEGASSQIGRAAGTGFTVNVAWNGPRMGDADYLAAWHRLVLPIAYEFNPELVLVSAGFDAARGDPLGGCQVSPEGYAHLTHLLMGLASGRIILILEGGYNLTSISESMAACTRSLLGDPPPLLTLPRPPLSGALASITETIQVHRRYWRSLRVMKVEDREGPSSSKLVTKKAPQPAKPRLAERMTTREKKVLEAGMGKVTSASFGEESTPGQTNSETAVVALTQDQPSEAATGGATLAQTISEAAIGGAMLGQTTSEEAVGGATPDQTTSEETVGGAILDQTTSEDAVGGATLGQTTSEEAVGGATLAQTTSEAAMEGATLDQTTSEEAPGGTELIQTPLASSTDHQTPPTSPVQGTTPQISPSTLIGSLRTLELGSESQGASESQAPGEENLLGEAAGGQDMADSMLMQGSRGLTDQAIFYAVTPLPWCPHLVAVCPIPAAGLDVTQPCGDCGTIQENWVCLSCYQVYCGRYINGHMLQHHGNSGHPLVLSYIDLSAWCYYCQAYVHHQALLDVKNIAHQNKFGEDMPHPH
In short: (§1)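 HDAC1 tested at 100, 1000 and 10000 nM; recombinant human HDAC6 at 0.1, 1, 10, 100 and 1000 nM. Reaction 60 min at 37° C, then developer for 30 min at 37° C; fluorescence read at Ex 390/Em 460.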

[2] = system: colitis models; test: Colitis models (dextran sulfate sodium); format: in vivo, C57BL/6J mice; settings: intraperitoneally twice a day after 8 days from supply of DSS; disease-induced models lost to 17.5 to 18 g
Description: 3.0% dextran sulfate sodium (DSS: MP biomedicals) was dissolved in deionized water and supplied to 9-week-old C57BL/6J mice for 5 to 7 days and then water was normally supplied to the mice to induce colitis in animal models. The experimental animals were classified into a solvent control group and each group treated with Compound 254 and Compound 255 as test materials based on the body weight of the experimental animals. The test material was intraperitoneally injected twice a day after 8 days from the supply of DSS. The evaluation of the efficacy in colitis models was made by determining the degree to which the weight, lost due to the disease, was recovered to normal level, and the results are shown in FIG. 6.

[3] = target: HDAC1 (Homo sapiens, UniProt Q13547); test: Test of HDAC activities, HDAC1 Fluorimetric Drug Discovery Assay Kit; format: biochemical; parameters: purchased Enzolifesciences BML-AK511; settings: samples at 100, 1000, 10000 nM; 37° C. 60 minutes; fluorescence Ex 390, Em 460; read-out: HDAC inhibitory activities, HDAC1
Chain of HDAC1 (Q13547 whole entry): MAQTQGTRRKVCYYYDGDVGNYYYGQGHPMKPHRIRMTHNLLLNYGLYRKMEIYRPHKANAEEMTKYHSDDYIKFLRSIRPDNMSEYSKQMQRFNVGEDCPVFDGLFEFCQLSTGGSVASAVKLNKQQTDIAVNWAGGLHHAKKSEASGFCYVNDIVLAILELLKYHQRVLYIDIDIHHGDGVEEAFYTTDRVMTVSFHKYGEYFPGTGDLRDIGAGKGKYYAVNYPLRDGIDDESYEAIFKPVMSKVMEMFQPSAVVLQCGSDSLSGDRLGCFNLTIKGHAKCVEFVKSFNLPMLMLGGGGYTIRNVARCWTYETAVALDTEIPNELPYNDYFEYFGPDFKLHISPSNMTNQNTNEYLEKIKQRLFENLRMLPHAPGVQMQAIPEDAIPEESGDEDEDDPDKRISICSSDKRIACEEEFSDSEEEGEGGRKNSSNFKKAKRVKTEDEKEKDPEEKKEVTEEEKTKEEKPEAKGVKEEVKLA
In short: as §1

[4] = system: collagen-induced arthritis models; test: Collagen-induced arthritis models; format: in vivo, DBA/1J mice; settings: 30 mg/kg twice a day
Description: An emulsion was prepared by mixing bovine collagen type II (Chondrex) and complete Freund's adjuvant (Chondrex) at a ratio of 1:1 until the […] using a 1 ml pipette. Each 100 μL of emulsion was intradermally injected into the tail of DBA/1J mice for the first immunization. After 21 days, an emulsion was prepared by mixing bovine collagen type II and incomplete Freund's adjuvant (Chondrex) at a ratio of 1:1 by the same method as above. Each of 100 μL of emulsion was intradermally injected into the upper part of the tail of DBA/1J mice for the second boosting immunization. After the second boosting immunization, the mice were grouped according to body weight, the test drug was administered to each group, and the effects of the test drugs were measured by measuring the clinical score and the body weight. The clinical scores were assigned from 0 to 4, and the total clinical score was determined by evaluating the feet of each mouse and summing up the scores (normal: 0, most severe edema: 16). That is, the efficacy in the arthritis models was evaluated with the severity of edema of the joint, and a higher score was assigned to more severe edema.

[5] = system: adjuvant-induced arthritis models; test: Adjuvant-induced arthritis models; format: in vivo, Lewis rat; settings: for clinical score: intraperitoneally, vehicle group 4.2
Description: Complete Freund's Adjuvant (Chondrex) containing 10 mg/mL Heat killed mycobacteria toxin was sufficiently mixed, and then 100 μL was taken and intradermally injected into the upper part of the tail of Lewis rat to induce arthritis. After 10 days, the length of the ankle circumference of rats was measured, and then the rats were grouped and used in the experiment. Each compound was intraperitoneally injected twice a day. The clinical score, the length of the ankle circumference, and the weight were measured twice a week after the administration of the compounds. The clinical scores were assigned from 0 to 4 based on the thesis of Woods, etc. (J. Immunology, 1214-1222, 2001), and the total clinical score was determined by evaluating the feet of each rat and summing up the scores (normal: 0, most severe edema: 16). The length of the ankle circumference was calculated based on the formula of 2×3.14(√(a^2+b^2/2)) after measuring top-bottom sides (a) of the foot and lateral sides (b) of the foot. The final value was determined by averaging the calculated values of each foot.

Row | IC50 [1] | IC50 [3] | SMILES | weight recovered to [2] | arthritis symptoms improved by ([4]; versus vehicle group) | clinical score ([4]; score 0 to 16, vehicle group 11.6) | clinical score ([5]; 25 mg/kg twice a day) | clinical score ([5]; 50 mg/kg twice a day) | improvement compared with MTX used as the control group ([5]; 25 and 50 mg/kg twice a day) | arthritis symptoms improved by ([5]; 25 and 50 mg/kg twice a day, versus vehicle group)
1 | 2 nM | 173 nM | Cn1ncc2ccc(-c3cccc(N(Cc4ccc(C(=O)NO)cc4)C(=O)N4CCOCC4)c3)cc21 [Compound 254, N-(4-(hydroxycarbamoyl)benzyl)-N-(3-(1-methyl-1H-indazol-6-yl)phenyl)morpholine-4-carboxamide] | 18.5 to 19.0 g | more than 40% | 6.4 | – | – | – | –
2 | 1 nM | 2720 nM | CCN1CCN(C(=O)N(Cc2ccc(C(=O)NO)cc2)c2cccc(C(F)(F)F)c2)CC1 [Compound 461, 4-ethyl-N-(4-(hydroxycarbamoyl)benzyl)-N-(3-(trifluoromethyl)phenyl)piperazine-1-carboxamide] | – | – | – | 1.9 | 1.3 | higher than that of MTX | 50 to 70%
3 | 11.8 nM | 1850 nM | CCN1CCN(C(=O)N(Cc2ccc(C(=O)NO)cc2)c2cccc(C(F)(F)F)n2)CC1 [Compound 826, 4-ethyl-N-(4-(hydroxycarbamoyl)benzyl)-N-(6-(trifluoromethyl)pyridin-2-yl)piperazine-1-carboxamide] | – | – | – | – | – | – | –
4 | 24.7 nM | 1740 nM | CC1CN(C(=O)N(Cc2ccc(C(=O)NO)cc2)c2cccc(C(F)(F)F)n2)CC(C)O1 (stereo not shown) [Compound 827, N-(4-(hydroxycarbamoyl)benzyl)-2,6-dimethyl-N-(6-(trifluoromethyl)pyridin-2-yl)morpholine-4-carboxamide] | – | – | – | – | – | – | –
5 | 36.7 nM | 4140 nM | O=C(NO)c1ccc(CN(C(=O)N2CCCCC2)c2cccc(C(F)(F)F)n2)cc1 [Compound 828, N-(4-(hydroxycarbamoyl)benzyl)-N-(6-(trifluoromethyl)pyridin-2-yl)piperidine-1-carboxamide] | – | – | – | – | – | – | –
6 | 8.2 nM | 1600 nM | O=C(NO)c1ccc(CN(C(=O)N2CC[C@H](F)C2)c2cccc(C(F)(F)F)n2)cc1 [Compound 829, (S)-3-fluoro-N-(4-(hydroxycarbamoyl)benzyl)-N-(6-(trifluoromethyl)pyridin-2-yl)pyrrolidine-1-carboxamide] | – | – | – | – | – | – | –
